Like-named read-outs stand apart in the source and are kept apart here.
What was measured:
[1] = molecular target: T1, SHP-2 enzyme (Met1-Leu525) (Homo sapiens, UniProt Q06124); test: SHP2 inhibition enzymatic assay (DiFMUP substrate, IRS1 peptide activation); assay type: biochemical; conditions: 0.5 nM SHP-2, 500 nM IRS1 peptide, 75 μM DiFMUP; read-out: SHP2wt - IC50
T1 construct: synthetized by Origene, Met1-Leu525, cat #TP750155; purchased Origene TP750155
T1 sequence (Q06124 1-525): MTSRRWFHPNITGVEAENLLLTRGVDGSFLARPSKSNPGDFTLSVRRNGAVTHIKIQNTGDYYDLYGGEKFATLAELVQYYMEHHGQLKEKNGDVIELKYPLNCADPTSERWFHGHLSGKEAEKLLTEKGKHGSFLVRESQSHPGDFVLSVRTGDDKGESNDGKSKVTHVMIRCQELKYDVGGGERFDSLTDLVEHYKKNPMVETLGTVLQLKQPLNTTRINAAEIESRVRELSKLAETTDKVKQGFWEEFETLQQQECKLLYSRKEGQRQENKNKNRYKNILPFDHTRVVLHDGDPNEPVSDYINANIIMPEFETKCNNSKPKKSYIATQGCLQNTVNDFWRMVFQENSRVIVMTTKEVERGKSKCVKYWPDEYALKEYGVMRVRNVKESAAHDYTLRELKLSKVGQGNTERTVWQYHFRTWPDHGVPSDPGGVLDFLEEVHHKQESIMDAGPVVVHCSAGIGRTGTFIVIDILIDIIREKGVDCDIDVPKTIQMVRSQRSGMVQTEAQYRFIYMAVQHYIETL
Description: Assay volume of 20 μL/well was assembled in 384 well black polystyrene low-binding microplates (Greiner), using the following buffer: 60 mM HEPES pH 7.2, 75 mM NaCl, 75 mM KCl, 1 mM EDTA pH 8, 0.05% tween-20, 5 mM DTT. The SHP-2 enzyme (synthetized by Origene, Met1-Leu525, cat #TP750155) was used at a final concentration of 0.5 nM.
Briefly, DMSO serially diluted testing compounds were transferred to the bottom of the assay plate. SHP2 was then added together with the IRS1 peptide 30 min post incubation, the DiFMUP substrate was added to the reaction and incubated 30 min at rt. […] The fluorescence was detected by a microplate reader (Envision, PerkinElmer) according to the DiFMUP excitation and emission wavelength. The lower the fluorescence the higher the SHP2 inhibition.
The percentage inhibition is fitted against the compound dilutions with a four-parameter logistic regression. The inflection point (i.e. the concentration at which half-maximal inhibition is achieved) is the IC50.

[2] = test system: phospho-ERK1/2 (Thr202/Tyr204) in KYSE-520 cells; test: Phospho-ERK cellular assay (TR-FRET); assay type: cell-based; conditions: KYSE-520 cells, 2 h at 37° C., read-out: pERK IC50
Description: ERK phosphorylation was detected using the “Advanced phospho-ERK1/2 (Thr202/Tyr204)” TR-FRET kit (Cisbio, Cat #64AERPEG/H), following the manufacturer reagents and instructions.
Briefly, 20.000/well KYSE-520 cells (DSMZ ACC 371) were plated in 6 μL RPMI-1640 (Invitrogen) growth medium, into 384 white low-volume high base TC microplates (Greiner). After an overnight incubation, cells were treated with DMSO serial diluted compounds and incubated for 2 h at 37° C. After incubation, 2 μL/well of 4X Lysis Buffer (Cisbio 64KL1FDF), were added and incubated with cells for 30 min on gentle shaking. Finally, lysates were added with 2 μL/well of Eu cryptate (donor) and D2 (acceptor) conjugated antibodies (as provided by the Cisbio kit #64AERPEG/H) diluted 1:100 in Detection Buffer (as provided by the Cisbio kit #64AERPEG/H). Plates were then sealed and incubated at rt in the dark. After an overnight incubation, the TR-FRET signal was detected on a suitable reader (Envision, PerkinElmer). The lower the TR-FRET signal the higher the higher the SHP2 inhibition in cells.
The activity of each compound dilution was calculated as percentage between vehicle DMSO treated cells and no cells, 0% inhibition and 100% inhibition respectively. The percentage activity is fitted against the compound dilutions with a four-parameter logistic regression. The inflection point (i.e. the concentration at which half-maximal inhibition is achieved) is the IC50.

| SMILES | IC50 [1] [nM] | IC50 [2] [nM] | IC50 ([2]; Homo sapiens, KYSE-520, 2 h) [nM] |
| --- | --- | --- | --- |
| N[C@@H]1c2ccnn2CC12CCN(c1nc3nc(Sc4cccnc4C(F)(F)F)cnc3[nH]1)CC2 [Example 1, (S)-1-(5-((2-(trifluoromethyl)pyridin-3-yl)thio)-1H-imidazo[4,5-b]pyrazin-2-yl)-4′H,6′H-spiro[piperidine-4,5′-pyrrolo[1,2-b]pyrazol]-4′-amine] | ≤ 50 |  | > 500 |
| Nc1nccc(Sc2cnc3[nH]c(N4CCC5(CC4)Cn4nccc4[C@H]5N)nc3n2)c1Cl [Example 2, (S)-1-(5-((2-amino-3-chloropyridin-4-yl)thio)-1H-imidazo[4,5-b]pyrazin-2-yl)-4′H,6′H-spiro[piperidine-4,5′-pyrrolo[1,2-b]pyrazol]-4′-amine] | ≤ 50 |  | > 500 |
| Nc1nc(N2CCC3(CC2)Cn2nccc2[C@H]3N)cnc1Sc1cccnc1C(F)(F)F [Example 3, (S)-1-(6-amino-5-((2-(trifluoromethyl)pyridin-3-yl)thio)pyrazin-2-yl)-4′H,6′H-spiro[piperidine-4,5′-pyrrolo[1,2-b]pyrazol]-4′-amine] | ≤ 50 |  | < 100 |
| Nc1nc(N2CCC3(CC2)Cn2nccc2[C@H]3N)cnc1Sc1ccnc(N)c1Cl [Example 4, (S)-1-(6-amino-5-((2-amino-3-chloropyridin-4-yl)thio)pyrazin-2-yl)-4′H,6′H-spiro[piperidine-4,5′-pyrrolo[1,2-b]pyrazol]-4′-amine] | ≤ 50 |  | < 100 |
| Cc1cnn2c1[C@@H](N)C1(CCN(c3cnc(Sc4ccnc(N)c4Cl)cn3)CC1)C2 [Example 10, (S)-1-(5-((2-amino-3-chloropyridin-4-yl)thio)pyrazin-2-yl)-3′-methyl-4′H,6′H-spiro[piperidine-4,5′-pyrrolo[1,2-b]pyrazol]-4′-amine] | ≤ 50 |  | < 100 |
| COc1cc2n(n1)CC1(CCN(c3cnc(Sc4ccnc(N)c4Cl)cn3)CC1)[C@@H]2N [Example 12, (S)-1-(5-((2-amino-3-chloropyridin-4-yl)thio)pyrazin-2-yl)-2′-methoxy-4′H,6′H-spiro[piperidine-4,5′-pyrrolo[1,2-b]pyrazol]-4′-amine] | ≤ 50 |  | 100 to 500 |
| N[C@@H]1c2ccnn2CC12CCN(c1ncc(Sc3ccnc4c3OC[C@@H]3CCCN43)c3nccn13)CC2 [Example 17, (S)-1-(8-(((S)-6a,7,8,9-tetrahydro-6H-pyrido[3,2-b]pyrrolo[1,2-d][1,4]oxazin-4-yl)thio)imidazo[1,2-c]pyrimidin-5-yl)-4′H,6′H-spiro[piperidine-4,5′-pyrrolo[1,2-b]pyrazol]-4′-amine] | ≤ 50 |  | < 100 |
| Nc1nc(N2CCC3(CC2)Cn2nc4c(c2[C@H]3N)CCC4)cnc1Sc1ccnc(N)c1Cl [Example 20, (S)-1′-(6-amino-5-((2-amino-3-chloropyridin-4-yl)thio)pyrazin-2-yl)-1,2,3,8-tetrahydro-6H-spiro[cyclopenta[d]pyrrolo[1,2-b]pyrazole-7,4′-piperidin]-8-amine] | ≤ 50 |  | < 100 |
| Nc1nccc(Sc2cnc(N3CCC4(CC3)Cn3nc5c(c3C4O)CCC5)c3cncn23)c1Cl (stereo not shown) [Example 22, 1′-(5-((2-amino-3-chloropyridin-4-yl)thio)imidazo[1,5-a]pyrazin-8-yl)-1,2,3,8-tetrahydro-6H-spiro[cyclopenta[d]pyrrolo[1,2-b]pyrazole-7,4′-piperidin]-8-ol] | > 300 |  | > 500 |
| N[C@@H]1c2ccnn2CC12CCN(c1ncc(Sc3ccnc4c3OC[C@H]3CC5(CC5)CN43)n3cncc13)CC2 [Example 24, (S)-1-(5-(((R)-6a′,7′-dihydro-6′H,9′H-spiro[cyclopropane-1,8′-pyrido[3,2-b]pyrrolo[1,2-d][1,4]oxazin]-4′-yl)thio)imidazo[1,5-a]pyrazin-8-yl)-4′H,6′H-spiro[piperidine-4,5′-pyrrolo[1,2-b]pyrazol]-4′-amine] | 50 to 300 |  | > 500 |

Now from value to compound:

| IC50 [1] [nM] | IC50 [2] [nM] | IC50 ([2]; Homo sapiens, KYSE-520, 2 h) [nM] | SMILES |
| --- | --- | --- | --- |
| ≤ 50 | 100 to 500 |  | Cc1nc(N2CCC3(CC2)Cn2nccc2[C@H]3N)cc(=O)n1-c1cccc(Cl)c1Cl (single isomer, unassigned) [Example 77a] |
| > 300 | > 500 |  | Cc1nc(N2CCC3(CC2)Cn2nccc2[C@H]3N)cc(=O)n1-c1cccc(Cl)c1Cl (single isomer, unassigned) [Example 77b] |
| ≤ 50 | 100 to 500 |  | Cc1nc(N2CCC3(CC2)Cn2nccc2[C@H]3N)c(Cl)c(=O)n1-c1cccc(Cl)c1Cl (single isomer, unassigned) [Example 78a] |
| > 300 | > 500 |  | Cc1nc(N2CCC3(CC2)Cn2nccc2[C@H]3N)c(Cl)c(=O)n1-c1cccc(Cl)c1Cl (single isomer, unassigned) [Example 78b] |
| ≤ 50 |  | < 100 | N[C@@H]1c2ccnn2CC12CCN(c1cnc(Sc3ccnc4c3OC[C@@H]3CC5(CC5)CN43)cn1)CC2 [Example 25, (S)-1-(5-(((S)-6a′,7′-dihydro-6′H,9′H-spiro[cyclopropane-1,8′-pyrido[3,2-b]pyrrolo[1,2-d][1,4]oxazin]-4′-yl)thio)pyrazin-2-yl)-4′H,6′H-spiro[piperidine-4,5′-pyrrolo[1,2-b]pyrazol]-4′-amine] |
|  |  | < 100 | N[C@@H]1c2ccnn2CC12CCN(c1cnc(Sc3ccnc(-n4cccn4)c3Cl)cn1)CC2 [Example 33, (S)-1-(5-((3-chloro-2-(1H-pyrazol-1-yl)pyridin-4-yl)thio)pyrazin-2-yl)-4′H,6′H-spiro[piperidine-4,5′-pyrrolo[1,2-b]pyrazol]-4′-amine] |
|  |  | < 100 | Cc1cn2ccc(Sc3cnc(N4CCC5(CC4)Cn4nccc4[C@H]5N)cn3)c(Cl)c2n1 [Example 43, (S)-1-(5-((8-chloro-2-methylimidazo[1,2-a]pyridin-7-yl)thio)pyrazin-2-yl)-4′H,6′H-spiro[piperidine-4,5′-pyrrolo[1,2-b]pyrazol]-4′-amine] |
|  |  | < 100 | Nc1nc(N2CCC3(CC2)Cn2nccc2[C@H]3N)cnc1Sc1ccn2ccnc2c1Cl [Example 44, (S)-1-(6-amino-5-((8-chloroimidazo[1,2-a]pyridin-7-yl)thio)pyrazin-2-yl)-4′H,6′H-spiro[piperidine-4,5′-pyrrolo[1,2-b]pyrazol]-4′-amine] |
| ≤ 50 |  |  | Cc1nccc(Sc2cnc(N3CCC4(CC3)Cn3cccc3[C@H]4N)cn2)c1F [Example 87, (S)-1-(5-((3-fluoro-2-methylpyridin-4-yl)thio)pyrazin-2-yl)-1′H,3′H-spiro[piperidine-4,2′-pyrrolizin]-1′-amine] |
| ≤ 50 |  |  | Cc1c(N2CCC3(CC2)Cn2nccc2[C@H]3N)nc(C)n(-c2cccc(Cl)c2Cl)c1=O [Example 88, (S)-6-(4′-amino-4′H,6′H-spiro[piperidine-4,5′-pyrrolo[1,2-b]pyrazol]-1-yl)-3-(2,3-dichlorophenyl)-2,5-dimethylpyrimidin-4(3H)-one] |
| 50 to 300 |  |  | Cc1nccc(-c2ncc3c(N4CCC5(CC4)Cn4nccc4[C@H]5N)nccn23)c1F [Example 89, (S)-1-(3-(3-fluoro-2-methylpyridin-4-yl)imidazo[1,5-a]pyrazin-8-yl)-4′H,6′H-spiro[piperidine-4,5′-pyrrolo[1,2-b]pyrazol]-4′-amine] |
| 50 to 300 |  |  | N[C@@H]1c2ccnn2CC12CCN(c1ccc(Oc3cccc(Cl)c3Cl)nc1)CC2 [Example 90, (S)-1-(6-(2,3-dichlorophenoxy)pyridin-3-yl)-4′H,6′H-spiro[piperidine-4,5′-pyrrolo[1,2-b]pyrazol]-4′-amine] |
